Patent publication US6844353B2, “Fungicidal properties of sampangine and its analogs to agriculturally important fungal plant pathogens” (The United States of America as represented by the …, priority 2003, dated 2005)
Read-outs that look alike come from different tables or passages of the source.

Tests used:
Assay in all cases: 96-well microtiter plate assay, fungal growth inhibition
C. fragariae = assay type: cell-based, Colletotrichum fragariae; details: for inhibition at 0.3 µM / inhibition at 3 µM / inhibition at 30 µM: Colletotrichum fragariae, read-out: Percent inhibition−Percent Stimulation±SEM; for Percent inhibition−Percent Stimulation±SEM: C. fragariae
Excerpt: (§1) Pathogen production. Isolates of Colletotrichum acutatum Simmonds, Colletotrichum fragariae Brooks, and Colletotrichum gloeosporioides (Penz.) Penz. & Sacc. in Penz. were obtained from B. J. Smith, USDA, ARS, Small Fruit Research Station, Poplarville, Miss. Colletotrichum fragariae (isolate CF63), C. acutatum (isolate CAGoff), and C. gloeosporioides (isolate CG162) were used for all pathogen and bioautography studies. Isolate CF63 is one of the most virulent isolates at infecting strawberry plants and inducing both crown and fruit rot (Smith and Black, 1990). CF63, CAGoff, and CG162 were used as standard test isolates because of our extensive knowledge of these isolates and their known fungicide sensitivity profiles in both bioautography and microtiter formats. The three Colletotrichum species were isolated from strawberry (Fragaria x ananassa Duchesne). Botrytis cinerea Pers.: Fr, was isolated from commercial grape (Vitis vinifera L.) and Fusarium oxysporum Schlechtend: Fr from orchid (Cynoches sp.). Phomopsis viticola (Sacc.) and P. obscurans (Ellis & Everh.) Sutton were from Mike A. Ellis, Ohio State University, Wooster, Ohio. Fungi were grown on potato-dextrose agar (PDA, Difco, Detroit, Mich.) in 9 cm petri dishes and incubated in a growth chamber at 24±2° C. and under cool-white fluorescent lights ([…]·m^−2·sec^−1 light) with 12 hour photoperiod.
(§2) Inoculum preparation. Conidia were harvested from 7-10 day-old cultures by flooding plates with 5 mL of sterile distilled water and dislodging conidia by softly brushing the colonies with an L-shaped glass rod. Conidial suspensions were filtered through sterile miracloth (Calbiochem-Novabiochem Corp., La Jolla, Calif.) to remove mycelia. Conidia concentrations were determined photometrically, from a standard curve based on the percent of transmittance (% T) at 625 nm and suspensions were then adjusted with sterile distilled water to a concentration of 1.0×10^6 conidia/mL.
(§3) Microtiter assay. A standardized 96-well microtiter plate assay developed for discovery of natural product fungicidal agents was used to evaluate naturally occurring antifungal agents from Macaranga monanara. A 96-well microtiter assay was used to determine sensitivity of B. cinerea, C. acutatum, C. fragariae, C. gloeosporioides, F. oxysporum, Phomopsis viticola, and P. obscurans to the various antifungal agents in comparison with known fungicidal standards. Vinclozolin, captan, and thiabendazole, which represent three different modes of action, were used as standards in this experiment. Each fungus was challenged in a dose-response format using test compounds where the final treatment concentrations were 0.3, 3.0 and 30.0 μM. Microtiter plates (Nunc MicroWell, untreated; Roskilde, Denmark) were covered with a plastic lid and incubated in a growth chamber as described previously for fungal growth. Growth was then evaluated by measuring absorbance of each well at 620 nm using a microplate photometer (Packard Spectra Count, Packard Instrument Co., Downers Grove, Ill.). Microtiter plates (Nunc MicroWell, untreated; Roskilde, Denmark) were covered with a plastic lid and incubated in a growth chamber at 24±1° C. and 12 hour photoperiod under 60±5 μmol light. Growth was then evaluated by measuring absorbance of each well at 620 nm using a microplate photometer (Packard Spectra Count, Packard Instrument Co., Downers Grove, Ill.).
(§4) Microbioassy Experimental Design. Chemical sensitivity each of B. cinerea, C. acutatum, C. fragariae, C. gloeosporiodes, F. oxysporum, Phomopsis viticola, and P. obscurans was evaluated using 96-well plate microbioassay format. Each chemical was evaluated in duplicate at each dose (0.3, 3.0 and 30.0 μM). […]

C. acutatum = assay type: cell-based, Colletotrichum acutatum; details: for inhibition at 0.3 µM / inhibition at 3 µM / inhibition at 30 µM: Colletotrichum acutatum, read-out: Percent inhibition−Percent Stimulation±SEM; for Percent inhibition−Percent Stimulation±SEM: C. acutatum
Excerpt: as §1, §2, §3, §4

B. cinerea = assay type: cell-based, Botrytis cinerea; details: for inhibition at 0.3 µM / inhibition at 3 µM / inhibition at 30 µM: Botrytis cinerea, read-out: Percent inhibition−Percent Stimulation±SEM; for Percent inhibition−Percent Stimulation±SEM: B. cinerea
Excerpt: as §1, §2, §3, §4

C. gloeosporioides = assay type: cell-based, Colletotrichum gloeosporioides; details: for inhibition at 0.3 µM / inhibition at 3 µM / inhibition at 30 µM: Colletotrichum gloeosporioides, read-out: Percent inhibition−Percent Stimulation±SEM; for Percent inhibition−Percent Stimulation±SEM: C. gloeosporioides
Excerpt: as §1, §2, §3, §4

F. oxysporum = assay type: cell-based, Fusarium oxysporum; details: for inhibition at 0.3 µM / inhibition at 3 µM / inhibition at 30 µM: Fusarium oxysporum, read-out: Percent inhibition−Percent Stimulation±SEM; for Percent inhibition−Percent Stimulation±SEM: F. oxysporum
Excerpt: as §1, §2, §3, §4

CC(C)NC(=O)N1CC(=O)N(c2cc(Cl)cc(Cl)c2)C1=O [Iprodione]
inhibition at 0.3 µM (C. fragariae; 48 h): -36.4 ± 12.3%
inhibition at 3 µM (C. fragariae; 48 h): -42.6 ± 10.4%
inhibition at 30 µM (C. fragariae; 48 h): -63.2 ± 10.7%
inhibition at 0.3 µM (C. fragariae; 72 h): -17.1 ± 3.6%
inhibition at 3 µM (C. fragariae; 72 h): -24 ± 4.6%
inhibition at 30 µM (C. fragariae; 72 h): -57.7 ± 12%
inhibition at 0.3 µM (C. acutatum; 48 h): -26.4 ± 10.7%
inhibition at 3 µM (C. acutatum; 48 h): -18.1 ± 3.2%
inhibition at 30 µM (C. acutatum; 48 h): -27.9 ± 5.5%
inhibition at 0.3 µM (C. acutatum; 72 h): -26.8 ± 9.9%
inhibition at 3 µM (C. acutatum; 72 h): -10.7 ± 3.1%
inhibition at 30 µM (C. acutatum; 72 h): -64.8 ± 4%
inhibition at 0.3 µM (B. cinerea; 48 h): -10.4 ± 11.1%
inhibition at 3 µM (B. cinerea; 48 h): 34.2 ± 29.1%
inhibition at 30 µM (B. cinerea; 48 h): 38.1 ± 29.3%
inhibition at 0.3 µM (B. cinerea; 72 h): 28.3 ± 27.9%
inhibition at 3 µM (B. cinerea; 72 h): 43.3 ± 20.5%
inhibition at 30 µM (B. cinerea; 72 h): 41.3 ± 20.6%
inhibition at 0.3 µM (C. gloeosporioides; 48 h): -33.4 ± 10.1%
inhibition at 3 µM (C. gloeosporioides; 48 h): -49.6 ± 8.4%
inhibition at 30 µM (C. gloeosporioides; 48 h): 23.4 ± 9.1%
inhibition at 0.3 µM (C. gloeosporioides; 72 h): -17.5 ± 6.7%
inhibition at 3 µM (C. gloeosporioides; 72 h): -30.7 ± 4%
inhibition at 30 µM (C. gloeosporioides; 72 h): -17.4 ± 7.9%
inhibition at 0.3 µM (F. oxysporum; 48 h): 1.8 ± 2.6%
inhibition at 3 µM (F. oxysporum; 48 h): 8.3 ± 3.1%
inhibition at 30 µM (F. oxysporum; 48 h): 7.7 ± 4.6%
inhibition at 0.3 µM (F. oxysporum; 72 h): -2.3 ± 3%
inhibition at 3 µM (F. oxysporum; 72 h): -4.1 ± 4%
inhibition at 30 µM (F. oxysporum; 72 h): -11.2 ± 5.3%

O=C1C2CC=CCC2C(=O)N1SC(Cl)(Cl)Cl (stereo not drawn) [Captan]
inhibition at 0.3 µM (C. fragariae; 48 h): -20.5 ± 9.5%
inhibition at 3 µM (C. fragariae; 48 h): 98.1 ± 0.6%
inhibition at 30 µM (C. fragariae; 48 h): 98.8 ± 0.8%
inhibition at 0.3 µM (C. fragariae; 72 h): -14.9 ± 2.2%
inhibition at 3 µM (C. fragariae; 72 h): 97.8 ± 1.6%
inhibition at 30 µM (C. fragariae; 72 h): 99.5 ± 0.3%
inhibition at 0.3 µM (C. acutatum; 48 h): -2.7 ± 2.4%
inhibition at 3 µM (C. acutatum; 48 h): 98.8 ± 0.4%
inhibition at 30 µM (C. acutatum; 48 h): 99.5 ± 0.3%
inhibition at 0.3 µM (C. acutatum; 72 h): -9.5 ± 1.5%
inhibition at 3 µM (C. acutatum; 72 h): 94.8 ± 0.2%
inhibition at 30 µM (C. acutatum; 72 h): 99.6 ± 0.2%
inhibition at 0.3 µM (B. cinerea; 48 h): -55.9 ± 24.7%
inhibition at 3 µM (B. cinerea; 48 h): 38.4 ± 23.5%
inhibition at 30 µM (B. cinerea; 48 h): 58 ± 23.2%
inhibition at 0.3 µM (B. cinerea; 72 h): 40.7 ± 16.3%
inhibition at 3 µM (B. cinerea; 72 h): 54.6 ± 22.9%
inhibition at 30 µM (B. cinerea; 72 h): 54 ± 17.9%
inhibition at 0.3 µM (C. gloeosporioides; 48 h): -4.4 ± 4.4%
inhibition at 3 µM (C. gloeosporioides; 48 h): 96.3 ± 2.1%
inhibition at 30 µM (C. gloeosporioides; 48 h): 99.7 ± 0.6%
inhibition at 0.3 µM (C. gloeosporioides; 72 h): -15.3 ± 2.1%
inhibition at 3 µM (C. gloeosporioides; 72 h): 97.9 ± 0.7%
inhibition at 30 µM (C. gloeosporioides; 72 h): 100 ± 0.3%
inhibition at 0.3 µM (F. oxysporum; 48 h): 2.8 ± 4.7%
inhibition at 3 µM (F. oxysporum; 48 h): 77.2 ± 7.2%
inhibition at 30 µM (F. oxysporum; 48 h): 100 ± 0.4%
inhibition at 0.3 µM (F. oxysporum; 72 h): -4.7 ± 2.1%
inhibition at 3 µM (F. oxysporum; 72 h): 24.1 ± 6.5%
inhibition at 30 µM (F. oxysporum; 72 h): 99.8 ± 0.2%

N#CC(CCc1ccc(Cl)cc1)(Cn1cncn1)c1ccccc1 (stereo not drawn) [Fenbucanazole]
Percent inhibition−Percent Stimulation±SEM (C. fragariae; 0.3 μM, 48 hrs): −26.8 ± 14.1%
Percent inhibition−Percent Stimulation±SEM (C. fragariae; 0.3 μM, 72 hrs): 19.0 ± 7.7%
Percent inhibition−Percent Stimulation±SEM (C. fragariae; 3.0 μM, 48 hrs): −37.0 ± 15.3%
Percent inhibition−Percent Stimulation±SEM (C. fragariae; 3.0 μM, 72 hrs): 4.7 ± 4.2%
Percent inhibition−Percent Stimulation±SEM (C. fragariae; 30 μM, 48 hrs): −99.3 ± 1.1%
Percent inhibition−Percent Stimulation±SEM (C. fragariae; 30 μM, 72 hrs): −97.7 ± 0.6%
Percent inhibition−Percent Stimulation±SEM (C. acutatum; 0.3 μM, 48 hrs): 13.0 ± 5.8%
Percent inhibition−Percent Stimulation±SEM (C. acutatum; 0.3 μM, 72 hrs): 16.3 ± 5.4%
Percent inhibition−Percent Stimulation±SEM (C. acutatum; 3.0 μM, 48 hrs): −3.8 ± 4.8%
Percent inhibition−Percent Stimulation±SEM (C. acutatum; 3.0 μM, 72 hrs): −89.9 ± 6.8%
Percent inhibition−Percent Stimulation±SEM (C. acutatum; 30 μM, 48 hrs): −39.2 ± 3.3%
Percent inhibition−Percent Stimulation±SEM (C. acutatum; 30 μM, 72 hrs): −21.7 ± 5.8%
Percent inhibition−Percent Stimulation±SEM (B. cinerea; 0.3 μM, 48 hrs): −46.0 ± 34.2%
Percent inhibition−Percent Stimulation±SEM (B. cinerea; 0.3 μM, 72 hrs): −49.6 ± 24.7%
Percent inhibition−Percent Stimulation±SEM (B. cinerea; 3.0 μM, 48 hrs): −35.9 ± 28.3%
Percent inhibition−Percent Stimulation±SEM (B. cinerea; 3.0 μM, 72 hrs): −47.0 ± 23.0%
Percent inhibition−Percent Stimulation±SEM (B. cinerea; 30 μM, 48 hrs): 17.6 ± 52.2%
Percent inhibition−Percent Stimulation±SEM (B. cinerea; 30 μM, 72 hrs): −29.9 ± 24.2%
Percent inhibition−Percent Stimulation±SEM (C. gloeosporioides; 0.3 μM, 48 hrs): −86.1 ± 1.4%
Percent inhibition−Percent Stimulation±SEM (C. gloeosporioides; 0.3 μM, 72 hrs): −59.1 ± 3.6%
Percent inhibition−Percent Stimulation±SEM (C. gloeosporioides; 3.0 μM, 48 hrs): −95.0 ± 1.1%
Percent inhibition−Percent Stimulation±SEM (C. gloeosporioides; 3.0 μM, 72 hrs): −98.1 ± 0.4%
Percent inhibition−Percent Stimulation±SEM (C. gloeosporioides; 30 μM, 48 hrs): −99.0 ± 0.7%
Percent inhibition−Percent Stimulation±SEM (C. gloeosporioides; 30 μM, 72 hrs): −99.6 ± 0.2%
Percent inhibition−Percent Stimulation±SEM (F. oxysporum; 0.3 μM, 48 hrs): −15.3 ± 2.6%
Percent inhibition−Percent Stimulation±SEM (F. oxysporum; 0.3 μM, 72 hrs): −10.4 ± 2.7%
Percent inhibition−Percent Stimulation±SEM (F. oxysporum; 3.0 μM, 48 hrs): −33.1 ± 4.2%
Percent inhibition−Percent Stimulation±SEM (F. oxysporum; 3.0 μM, 72 hrs): −29.3 ± 2.6%
Percent inhibition−Percent Stimulation±SEM (F. oxysporum; 30 μM, 48 hrs): −45.5 ± 3.4%
Percent inhibition−Percent Stimulation±SEM (F. oxysporum; 30 μM, 72 hrs): −44.5 ± 2.5%
